Source: the supplement of paper PMC10307832

Assays:
Experiment in all cases: relative viability (nuclei count vs DMSO), 5 days (fraction); higher = more cells survive
[1] = compound: CCN(CCO)CCCC(C)Nc1ccnc2cc(Cl)ccc12 [Hydroxychloroquine] + O=C(c1cc(Cc2n[nH]c(=O)c3ccccc23)ccc1F)N1CCN(C(=O)C2CC2)CC1 [Olaparib] (partner 8 µM)
Summary of the method: (§1)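 The day after seeding in 1536-well plates, lung cancer cell lines were treated by pin tool with a single drug, or with a fixed anchor-drug dose together with five library-drug doses (not always all listed) in √10 steps. After 5 days, a combined fix-and-stain solution (final 0.05% Triton X-100, 1% formaldehyde, 1 ug/ml Hoechst) was added. Nuclei counted on 4× images gave relative viability as treated counts over vehicle counts, reported as the median of duplicate plates.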

[2] = compound: CCN(CCO)CCCC(C)Nc1ccnc2cc(Cl)ccc12 [Hydroxychloroquine] + Nc1nc2[nH]cc(CCc3ccc(C(=O)N[C@@H](CCC(=O)O)C(=O)O)cc3)c2c(=O)[nH]1 [Pemetrexed] (partner 0.2 µM)
Summary of the method: as §1

[3] = compound: CCN(CCO)CCCC(C)Nc1ccnc2cc(Cl)ccc12 [Hydroxychloroquine] + O=C(CCCCCCC(=O)Nc1ccccc1)NO [Vorinostat] (partner 1 µM)
Summary of the method: as §1

[4] = compound: CCN(CCO)CCCC(C)Nc1ccnc2cc(Cl)ccc12 [Hydroxychloroquine] + C[C@]1(O)C[C@@H](c2nc(-c3ccc4ccc(-c5ccccc5)nc4c3)c3c(N)nccn32)C1 [Linsitinib] (partner 1 µM)
Summary of the method: as §1

Cell Line	relative viability ([1]; first compound 0.5 µM)	relative viability ([1]; first compound 1.581 µM)	relative viability ([1]; first compound 5 µM)	relative viability ([1]; first compound 15.81 µM)	relative viability ([1]; first compound 50 µM)	relative viability ([2]; first compound 0.5 µM)	relative viability ([2]; first compound 1.581 µM)	relative viability ([2]; first compound 5 µM)	relative viability ([2]; first compound 15.81 µM)	relative viability ([2]; first compound 50 µM)	relative viability ([3]; first compound 0.5 µM)	relative viability ([3]; first compound 1.581 µM)	relative viability ([3]; first compound 5 µM)	relative viability ([3]; first compound 15.81 µM)	relative viability ([3]; first compound 50 µM)	relative viability ([4]; first compound 0.5 µM)	relative viability ([4]; first compound 1.581 µM)	relative viability ([4]; first compound 5 µM)	relative viability ([4]; first compound 15.81 µM)	relative viability ([4]; first compound 50 µM)
NCI-H647	0.521	0.531	0.591	0.626	0.602	0.186	0.176	0.202	0.196	0.182	0.662	0.704	0.603	0.616	0.612	1.27	1.01	1.29	1.25	1.22
NCI-H650	0.423	0.364	0.326	0.374	0.315	0.979	0.868	0.966	1.06	0.889	0.478	0.432	0.397	0.42	0.478	0.907	0.802		0.828	0.818
NCI-H661	0.782	0.695	0.743	0.684	0.69	0.962	0.904	0.91	0.877	0.872	0.827	0.828	0.782	0.802	0.782	0.537	0.361	0.564	0.542	0.598
NCI-H838	0.783	0.801	0.804	0.803	0.809	0.238	0.248	0.264	0.243	0.253	0.721	0.667	0.803	0.716	0.721	0.929	0.91	1.01	0.93	1.04
NCI-H1355	0.796	0.685	0.661	0.709	0.782	1.11	0.997	0.906	1.05	1.14	0.657	0.582	0.631	0.63	0.657	0.872	0.879	0.896	0.809	0.892
NCI-H1395	0.46	0.467	0.471	0.512	0.423	0.83	0.936	0.717	0.793	0.779	0.756	0.716	0.606	0.743	0.674	0.964	0.979	1.13	1.13	1.18
NCI-H1437	0.604	0.665	0.65	0.653	0.652	0.326	0.314	0.324	0.33	0.321	0.853	0.862	0.85	0.844	0.891	0.904	1.07	1.18	1.16	1.05
NCI-H1651	0.178	0.193	0.191	0.18	0.197	0.628	0.626	0.602	0.597	0.449	0.582	0.589	0.583	0.579	0.493	0.909	1.1	0.975	1.14	0.963
